Measured values published in patent US7279161B2, “Factor IX/factor IXa activating antibodies and antibody derivatives” (Baxter Aktiengesellschaft, priority 1999, dated 2007).
Entries after “also recorded” stand apart in the source; their conditions may differ.

What was measured:
FVIII deficient plasma = assay: aPTT based one stage clotting assay in FVIII deficient plasma; type: biochemical, human
Method: During normal hemostasis, FIX becomes initially activated either by the tissue factor (TF)/factor VIIa pathway or later on by activated factor XI (FXIa). Subsequent to its activation, FIXa associates on the platelet surface in a membrane bound complex with activated FVIII. […] Different amounts of antibody 193/AD3 or mouse IgG (as a control) were used in a standard aPTT based one stage clotting assay. Briefly, 100 μl of antibody-containing samples were incubated with 100 μl of FVIII deficient plasma (DP) and with 100 μl of DAPTTIN (PTT Reagent for determining activated Thromboplastin Time; IMMUNO AG) reagent, in a KC10A clotting analyzer. Where indicated, a total amount of 50 ng activated FIX was included in the reaction mixture. After a 4 minute incubation, the reaction was started by the addition of 100 μl CaCl2 (25 mM).
The peptides were also analyzed for their potential to reduce the clotting time in a FVIII deficient plasma. The aPTT based one stage clotting assay was essentially done as described (see example 6). Clotting times (time from starting the reaction to the “clot”-formation were compared either against FVIII, a buffer control (IZ) or a control peptide (scrambled version). The results of two typical clotting experiments done with two different aPTT reagents (DAPTTIN and Pathromtin SL) are shown in table 3A and table 3B.

human FIXa = biological target: T1, human FIXa (Homo sapiens, UniProt P00740); assay: Chromogenic FVIII-like (FXa generation) assay with human FIXa added; type: biochemical
T1 construct: with (+) and without (−) addition of 50 ng human FIXaβ; purchased ERL (Enzyme Research Laboratories)
T1 sequence (P00740 47-191 limits assumed): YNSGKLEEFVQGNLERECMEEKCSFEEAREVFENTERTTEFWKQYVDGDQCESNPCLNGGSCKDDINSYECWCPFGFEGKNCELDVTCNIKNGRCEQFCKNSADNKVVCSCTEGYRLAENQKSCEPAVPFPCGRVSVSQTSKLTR
T1 sequence (P00740 227-461 limits assumed): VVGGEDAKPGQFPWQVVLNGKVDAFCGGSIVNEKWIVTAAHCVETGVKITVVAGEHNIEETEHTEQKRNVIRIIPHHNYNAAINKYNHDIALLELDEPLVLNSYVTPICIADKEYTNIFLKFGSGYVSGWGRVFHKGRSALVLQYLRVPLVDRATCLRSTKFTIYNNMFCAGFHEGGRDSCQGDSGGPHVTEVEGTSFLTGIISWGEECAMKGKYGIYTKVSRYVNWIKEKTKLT
Method: The chromogenic activity of these antibody preparations was measured in the following FXa generation kinetic assay: 10 μg of monoclonal antibody (in 25 μl) were transferred to microtiter plate wells and warmed to 37° C. Chromogenic substrate (S-2222), synthetic thrombin inhibitor (I-2581), factor IXa and FX were reconstituted in sterile water and FIXa/FX (both bovine) were mixed with phospholipids according to the supplier's protocol. Per reaction, 50 μl of the phospholipid/FIXa/FX solution were combined with 25 μl CaCl2 (25 mM) and 50 μl of the substrate/inhibitor cocktail. To start the reaction, 125 μl of the premix were added to the monoclonal antibody solution in the microtiter plates and incubated at 37° C. Absorbance at 405 nm and 490 nm of the samples was read at various times (5 min to 2 h) against a reagent blank ([…] TBS instead of monoclonal antibodies) in a Labsystems iEMS Reader MF™ microtiter plate reader using GENESIS™ software. In parallel, the same reactions were performed except that 50 ng human FIXa were added per reaction.
To analyze the FVIII-like (FIXa activating) activity of the peptides, an assay system based on a commercial available FVIII assay was developed (see examples 2 and 4). The basic principle is, that without a cofactor, FIXa will have very limited activity towards its natural substrate FX. […] The amount of FXa generated is monitored by cleavage of a chromogenic substrate. The principle of the revised chromogenic assay is described for two representative peptides: A1/3 and A1/5 (Table 2). Briefly, 25 μl aliquots of peptide stock solution (in imidazole buffer (IZ) 50 mM imidazole, 100 mM NaCl, pH 7.2) were transferred to microtiter plate wells and warmed to 37° C. Chromogenic FXa substrate (S-2222), synthetic thrombin inhibitor (I-2581), bovine FIXa and bovine FX were reconstituted in sterile water and FIXa/FX mixed with phospholipids according to the supplier's protocol. […] Per reaction, 50 μl of the phospholipid/FIXa/FX solution were combined with 25 μl CaCl2 (25 mM) and 50 μl of the substrate/inhibitor cocktail. To start the reaction, 125 μl of the premix were added to the peptide solution in the microtiter plate and incubated at 37° C. Absorbance at 405 nm and 490 nm of the samples was read at various times (5 min to 2 h) against a reagent blank in a Labsystems iEMS Reader MF™ microtiter plate reader using GENESIS™ software.

EEEEGGGFTVNWYFDEEE [B1/6]
clotting time (FVIII deficient plasma; 12.5 nM peptide, (+) presence of activated human FIX): 100 s | clotting time (FVIII deficient plasma; 12.5 nM peptide, (−) absence of activated human FIX): 111 s | clotting time (FVIII deficient plasma; 0.125 μM peptide, (+) presence of activated human FIX): 101 s | clotting time (FVIII deficient plasma; 0.125 μM peptide, (−) absence of activated human FIX): 111 s | clotting time (FVIII deficient plasma; 1.25 μM peptide, (+) presence of activated human FIX): 100 s | clotting time (FVIII deficient plasma; 1.25 μM peptide, (−) absence of activated human FIX): 110 s | clotting time (FVIII deficient plasma; 12.5 μM peptide, (+) presence of activated human FIX): 103 s | clotting time (FVIII deficient plasma; 12.5 μM peptide, (−) absence of activated human FIX): 115 s | FIXa activating activity in chromogenic assay (human FIXa; data not shown): no activity

EEEEGGGYYVNWYFDEEE [A1/2]
chromogenic FVIII-like activity (FXa generation) (human FIXa; 2.9 nM human FIXa): did not give any significant chromogenic activity

EYGEGYGEVNEYDEFEWE [A1/4]
chromogenic FVIII-like activity (FXa generation) (human FIXa; 2.9 nM human FIXa): did not give any significant chromogenic activity

FGVGYRGETRNFDW [B1/5]
FIXa activating activity in chromogenic assay (human FIXa; data not shown): no activity

REGGGFTVNWYFDR [B1/4]
chromogenic activity (human FIXa; chromogenic FVIII assay, data not shown): some chromogenic activity

RdRdRdGEYGVYWNGDFYRdRdRd [A1/3-Rd-srmb]
average clotting time (FVIII deficient plasma; Table 4, 1.25 μM, 2.2 nM FIXa): 103 s | clotting time (FVIII deficient plasma; Table 4, 1.25 μM, 2.2 nM FIXa, duplicate 1): 101.1 s | clotting time (FVIII deficient plasma; Table 4, 1.25 μM, 2.2 nM FIXa, duplicate 2): 105.3 s | average clotting time (FVIII deficient plasma; Table 4, 1.25 μM, w/o FIXa): 107 s | clotting time (FVIII deficient plasma; Table 4, 1.25 μM, w/o FIXa, duplicate 1): 107.2 s | clotting time (FVIII deficient plasma; Table 4, 1.25 μM, w/o FIXa, duplicate 2): 107.1 s | average clotting time (FVIII deficient plasma; Table 4, 2.5 μM, 2.2 nM FIXa): 105 s | clotting time (FVIII deficient plasma; Table 4, 2.5 μM, 2.2 nM FIXa, duplicate 1): 105 s | clotting time (FVIII deficient plasma; Table 4, 2.5 μM, 2.2 nM FIXa, duplicate 2): 104.2 s | average clotting time (FVIII deficient plasma; Table 4, 2.5 μM, w/o FIXa): 112 s | clotting time (FVIII deficient plasma; Table 4, 2.5 μM, w/o FIXa, duplicate 1): 111.9 s | clotting time (FVIII deficient plasma; Table 4, 2.5 μM, w/o FIXa, duplicate 2): 111.9 s | average clotting time (FVIII deficient plasma; Table 4, 5 μM, 2.2 nM FIXa): 108 s | clotting time (FVIII deficient plasma; Table 4, 5 μM, 2.2 nM FIXa, duplicate 1): 108.5 s | clotting time (FVIII deficient plasma; Table 4, 5 μM, 2.2 nM FIXa, duplicate 2): 108.2 s | average clotting time (FVIII deficient plasma; Table 4, 5 μM, w/o FIXa): 113 s | clotting time (FVIII deficient plasma; Table 4, 5 μM, w/o FIXa, duplicate 1): 113.1 s | clotting time (FVIII deficient plasma; Table 4, 5 μM, w/o FIXa, duplicate 2): 112.4 s | average clotting time (FVIII deficient plasma; Table 4, 7.5 μM, 2.2 nM FIXa): 107 s | clotting time (FVIII deficient plasma; Table 4, 7.5 μM, 2.2 nM FIXa, duplicate 1): 107.6 s | clotting time (FVIII deficient plasma; Table 4, 7.5 μM, 2.2 nM FIXa, duplicate 2): 106.6 s | average clotting time (FVIII deficient plasma; Table 4, 7.5 μM, w/o FIXa): 114 s | clotting time (FVIII deficient plasma; Table 4, 7.5 μM, w/o FIXa, duplicate 1): 114.6 s | clotting time (FVIII deficient plasma; Table 4, 7.5 μM, w/o FIXa, duplicate 2): 113.6 s | average clotting time (FVIII deficient plasma; Table 4, 10 μM, 2.2 nM FIXa): 108 s | clotting time (FVIII deficient plasma; Table 4, 10 μM, 2.2 nM FIXa, duplicate 1): 107.2 s | clotting time (FVIII deficient plasma; Table 4, 10 μM, 2.2 nM FIXa, duplicate 2): 107.8 s | average clotting time (FVIII deficient plasma; Table 4, 10 μM, w/o FIXa): 116 s | clotting time (FVIII deficient plasma; Table 4, 10 μM, w/o FIXa, duplicate 1): 115.8 s | clotting time (FVIII deficient plasma; Table 4, 10 μM, w/o FIXa, duplicate 2): 115.3 s | average clotting time (FVIII deficient plasma; Table 4, 12.5 μM, 2.2 nM FIXa): 108 s | clotting time (FVIII deficient plasma; Table 4, 12.5 μM, 2.2 nM FIXa, duplicate 1): 108.1 s | clotting time (FVIII deficient plasma; Table 4, 12.5 μM, 2.2 nM FIXa, duplicate 2): 107.8 s | average clotting time (FVIII deficient plasma; Table 4, 12.5 μM, w/o FIXa): 118 s | clotting time (FVIII deficient plasma; Table 4, 12.5 μM, w/o FIXa, duplicate 1): 117.2 s | clotting time (FVIII deficient plasma; Table 4, 12.5 μM, w/o FIXa, duplicate 2): 118 s | average clotting time (FVIII deficient plasma; Table 4, 15 μM, 2.2 nM FIXa): 113 s | clotting time (FVIII deficient plasma; Table 4, 15 μM, 2.2 nM FIXa, duplicate 1): 112.7 s | clotting time (FVIII deficient plasma; Table 4, 15 μM, 2.2 nM FIXa, duplicate 2): 112.4 s | average clotting time (FVIII deficient plasma; Table 4, 15 μM, w/o FIXa): 122 s | clotting time (FVIII deficient plasma; Table 4, 15 μM, w/o FIXa, duplicate 1): 121.9 s | clotting time (FVIII deficient plasma; Table 4, 15 μM, w/o FIXa, duplicate 2): 121.3 s

VRYRNRYRWGYRGRFGDE [A1/5]
chromogenic FVIII-like activity (FXa generation) (human FIXa; 2.9 nM human FIXa): inactive; also recorded: does not give rise to any FXa generation | chromogenic activity (human FIXa; 12 μM peptide, 2.3 nM human FIXa): no significant FXa generation

B1: 198/B1: anti-FIX/FIXa monoclonal IgG, ECACC No. 99090925; 198/AB2 is an identical subclone (protein)
scFv: EVQLQESGGGLVKPGGSLKLSCAASGFTFSSYTMSWVRQTPEKRLEWVATISSGGSSTYYPDSVKGRFTISRDNAKNTLYLQMSSLRSEDTAMYYCTREGGGFTVNWYFDVWGAGTLVTVSAGGGGSGGRASGGGGSENVLTQSPASLAVSLGQRATISCRASESVDSYGYNFMHWYQQIPGQPPKLLIYRASNLESGIPARFSGSGSRTDFTLTINPVEADDVATYYCQQSNEDPLTFGTGTRLEIKR
modifications: scFv derived from IgG; Description of Artificial Sequence:scFv from hybridoma cell line 198/AB2 (subclone of 198/B1)
notes: anti-FIX/FIXa monoclonal IgG, ECACC No. 99090925; 198/AB2 is an identical subclone
procoagulant activity (FVIII deficient plasma; one-stage clotting assay in the presence of FIXa): show procoagulant activity

B2: MycHis-198AB2#102: 198/B1 (subclone AB2) scFv fragment with c-myc-tag and His6-tag (protein)
scFv: EVQLQESGGGLVKPGGSLKLSCAASGFTFSSYTMSWVRQTPEKRLEWVATISSGGSSTYYPDSVKGRFTISRDNAKNTLYLQMSSLRSEDTAMYYCTREGGGFTVNWYFDVWGAGTLVTVSAGGGGSGGRASGGGGSENVLTQSPASLAVSLGQRATISCRASESVDSYGYNFMHWYQQIPGQPPKLLIYRASNLESGIPARFSGSGSRTDFTLTINPVEADDVATYYCQQSNEDPLTFGTGTRLEIKR
modifications: left off: small tags and cut ends
notes: 198/B1 (subclone AB2) scFv fragment with c-myc-tag and His6-tag
chromogenic FVIII-like activity (FXa generation) (human FIXa; 2.3 nM human FIXa): gave rise to a substantial FXa generation

B3: 8860-M/H#4c: unrelated scFv of #8860 with c-myc-tag and His6-tag, negative control (protein)
scFv: EVQLQQSGPELVKPGASVKISCKASGYAFSSSWMNWVKQRPGQGLEWIGRIYPGNGDTNYNGKFKGKATLTADKSSSTAYMQLSSLTSVDSAVYFCADGNVYYYAMDYWGQGTSVTVSSGGGGSGGRASGGGGSQIVLTQSPASLAVSLGQRATISCRASKSVSTSGYSYMHWYQQKPGQPPKLLIYLASNLESGVPARFSGSGSGTDFTLNIHPVEEEDAATYYCQHSRELPRTFGGGTKLEIKRAAAEQKLISEEDLNGAAHHHHHH
chromogenic FVIII-like activity (FXa generation) (human FIXa; 2.3 nM human FIXa): did not

B4: 198/A1 Fab fragment: Fab fragment of antibody 198/A1 made with papain, purified on protein L (antibody, V domains shown)
VH: EVQLQESGGGLVKPGGSLKLSCAASGFIFSSYTMSWVRQTPEKRLEWVATISSGGSSTYYPDSVKGRFTISRDNAKNTLYLQMSSLKSEDTAMYHCTREGGGYYVNWYFDVWGAGTTLTVSS
VL: DIELTQSPASLAVSLGQRATISCRASESVDSYGKSFMHWYQQKPGQPPKLLIYRASNLESGIPARFSGSGSRTDFTLTINPVEADDVATYYCQQSNEDPLTFGAGTRLEIKR
chromogenic FVIII-like activity (FXa generation) (human FIXa; 2.3 nM human FIXa): still gives rise to FIX dependent FXa generation | chromogenic activity compared to intact antibody (human FIXa; 2.3 nM human FIXa): somewhat less activity
